Results reported in ChEMBL document CHEMBL1201862, “PubChem BioAssay data set” (2004).
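Cultured in 96-well plates, cells were exposed to test compound for 48 hours across five concentrations. GI50: concentration for 50% inhibition of growth.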 Activity calls are given as the source filed them. Rule as the data show it: active = GI50 up to about 1.1 µM and inactive = higher.

Columns and labels:
Test in all cases: NCI tumour cell line growth inhibition, 48 h
SNB-75 = test system: SNB-75
LOX IMVI = test system: LOX IMVI
HT-29 = test system: HT-29
NCI-H23 = test system: NCI-H23
HL-60 = test system: HL-60
HOP-62 = test system: HOP-62
SNB-19 = test system: SNB-19
SK-MEL-28 = test system: SK-MEL-28
OVCAR-8 = test system: OVCAR-8
DU-145 = test system: DU-145
SW-620 = test system: SW-620
U-251 = test system: U-251
SR = test system: SR
NCI/ADR-RES = test system: NCI/ADR-RES
M14 = test system: M14
ACHN = test system: ACHN
SF-295 = test system: SF-295
A549 = test system: A549
CAKI-1 = test system: CAKI-1
SK-OV-3 = test system: SK-OV-3

Measured: GI50

c1c[nH]c(CN2CCN(Cc3ncc[nH]3)CC2)n1
inactive: SNB-75 > 100 µM | LOX IMVI > 100 µM | HT-29 > 100 µM | NCI-H23 > 100 µM | HL-60 > 100 µM | HOP-62 > 100 µM | SNB-19 > 100 µM | SK-MEL-28 > 100 µM | OVCAR-8 > 100 µM | DU-145 > 100 µM | SW-620 > 100 µM | U-251 > 100 µM | SR > 100 µM | NCI/ADR-RES > 100 µM | M14 > 100 µM | ACHN > 100 µM | SF-295 > 100 µM | A549 > 100 µM | CAKI-1 > 100 µM | SK-OV-3 > 100 µM

CC(=O)OCc1cn(S(=O)(=O)c2ccc(C)cc2)cn1
inactive: SNB-75 > 100 µM | LOX IMVI 47.5 µM | HT-29 20.7 µM | NCI-H23 > 100 µM | HL-60 > 100 µM | HOP-62 > 100 µM | SNB-19 > 100 µM | SK-MEL-28 > 100 µM | OVCAR-8 > 100 µM | DU-145 > 100 µM | SW-620 43 µM | U-251 > 100 µM | SR 9.51 µM | NCI/ADR-RES > 100 µM | M14 25.3 µM | ACHN > 100 µM | SF-295 > 100 µM | A549 84.5 µM | CAKI-1 > 100 µM | SK-OV-3 > 100 µM

O=C(NC(Cc1c[nH]c2ccccc12)C(=O)Nc1ccc(Br)cc1)OCc1ccccc1 (stereo not given)
inactive: SNB-75 14.7 µM | LOX IMVI 9.06 µM | HT-29 6.19 µM | NCI-H23 11.8 µM | HL-60 3.97 µM | HOP-62 11 µM | SNB-19 21.1 µM | SK-MEL-28 14.3 µM | OVCAR-8 13.6 µM | DU-145 13.3 µM | SW-620 16 µM | U-251 12 µM | SR 6.95 µM | NCI/ADR-RES 12.1 µM | M14 11.8 µM | ACHN 10.2 µM | SF-295 9.23 µM | A549 9.16 µM | CAKI-1 5.27 µM | SK-OV-3 14.1 µM

NC(=O)NNCc1c(-c2ccccc2)no[n+]1[O-]
inactive: SNB-75 > 100 µM | LOX IMVI > 100 µM | HT-29 > 100 µM | NCI-H23 > 100 µM | HL-60 > 100 µM | HOP-62 > 100 µM | SNB-19 > 100 µM | SK-MEL-28 > 100 µM | OVCAR-8 > 100 µM | DU-145 > 100 µM | SW-620 > 100 µM | U-251 > 100 µM | SR > 100 µM | NCI/ADR-RES > 100 µM | M14 > 100 µM | ACHN > 100 µM | SF-295 > 100 µM | A549 > 100 µM | CAKI-1 > 100 µM | SK-OV-3 > 100 µM

CCOC(=O)C1OC(=O)CC1C1(C(=O)OCC)C=CC(=O)O1 (stereo not given)
inactive: SNB-75 > 100 µM | LOX IMVI 14.2 µM | HT-29 > 100 µM | NCI-H23 > 100 µM | HL-60 42 µM | HOP-62 > 100 µM | SNB-19 > 100 µM | SK-MEL-28 > 100 µM | OVCAR-8 > 100 µM | DU-145 > 100 µM | SW-620 > 100 µM | U-251 93.8 µM | SR > 100 µM | NCI/ADR-RES > 100 µM | M14 > 100 µM | ACHN > 100 µM | SF-295 > 100 µM | A549 > 100 µM | CAKI-1 > 100 µM | SK-OV-3 > 100 µM
